From publication PMC6967409 (Frontiers in Chemistry, 2020)
Where two headings read alike, the source gives them in different places.

Experiments:
[1] = tested on: Chinese hamster ovarian (CHO) cells; conditions: cited from earlier work
[2] = tested on: P. falciparum W2; design: method as in Coertzen et al. (2018); conditions: SYBR Green I; ref Coertzen et al. (2018); read-out: Proliferative IC50 W2; cited from earlier work
[3] = tested on: P. falciparum W2; assay: T0 [3H]-hypoxanthine drug susceptibility assay; format: cell-based; conditions: Plasmodium falciparum; for IC50: W2, read-out: W2 IC50; for IC90: W2, read-out: W2 IC90
[4] = tested on: P. falciparum NF54; design: method as in Coertzen et al. (2018); conditions: SYBR Green I; ref Coertzen et al. (2018); read-out: Proliferative IC50 NF54; cited from earlier work
[5] = tested on: P. falciparum Dd2; design: method as in Coertzen et al. (2018); conditions: pLDH, 48 h; ref Coertzen et al. (2018); read-out: Metabolic IC50 Dd2; cited from earlier work
[6] = tested on: P. falciparum K1; design: method as in Coertzen et al. (2018); conditions: SYBR Green I; ref Coertzen et al. (2018); read-out: Proliferative IC50 K1; cited from earlier work
[7] = tested on: P. falciparum NF54 early stage gametocytes (>90% stage I–III); design: method as in Coertzen et al. (2018); conditions: read-out: Early Stage (EG, Luc 48 h) IC50; >90% stage I–III gametocytes; ref Coertzen et al. (2018); cited from earlier work
[8] = tested on: P. falciparum NF54; design: method as in Coertzen et al. (2018); conditions: pLDH, 48 h; ref Coertzen et al. (2018); read-out: Metabolic IC50 NF54; cited from earlier work
[9] = tested on: P. falciparum NF54 late stage gametocytes (>90% stage IV and V); design: method as in Coertzen et al. (2018); conditions: read-out: Late Stage (LG, Luc 72 h) IC50; >90% stage IV and V gametocytes; ref Coertzen et al. (2018); cited from earlier work
[10] = tested on: asexual P. falciparum NF54, Dd2, K1, W2; assay: Asexual P. falciparum, metabolic (pLDH) and proliferative (SYBR Green I) platforms; format: cell-based; conditions: Plasmodium falciparum; drug-sensitive and -resistant parasites, both assay platforms; read-out: IC50, asexual P. falciparum metabolic activity and proliferation
Description: Data analysis was performed using GraphPad Prism 7.
The in vitro activities of the new derivatives were determined against drug sensitive NF54 and multi-drug resistant Dd2, K1, and W2 intraerythrocytic asexual P. falciparum malaria parasite strains using both a metabolic (parasite LDH) and a proliferative (SYBR Green I fluorescence) assay readout (Table 1).

[11] = tested on: P. falciparum NF54 early stage gametocytes (>90% stage I–III); assay: Gametocytocidal luciferase reporter assay, early stage, 48 h; format: cell-based; conditions: Plasmodium falciparum, NF54, 48 h, read-out: Early Stage (EG, Luc 48 h) IC50; >90% stage I–III gametocytes, ±SEM
Description: (§1) P. falciparum parasites (NF54, K1, and W2) were cultured in vitro in human erythrocytes (A^+ or O^+) under 90% N2, 5% CO2, and 5% O2 atmospheric conditions with supplemented RPMI 1640 media (Sigma Aldrich) containing Albumax II, as previously described (Verlinden et al., [2011]). This study was carried out according the guidelines set out by the Faculty of Health Sciences Ethical Committee, Ethical Clearance no. EC-120821/077. The protocol was approved by the Faculty of Health sciences ethical committee at the University of Pretoria. All subjects gave written informed consent in accordance with the Declaration of Helsinki. Parasite proliferation was monitored microscopically using Giemsa stained smears. Synchronized ring stage parasites (>95%) were obtained using a 5% D-sorbitol (Sigma Aldrich) treatment. […] Gametocyte cultures were kept stationary under 90% N2, 5% CO2, and 5% O2 atmospheric conditions at 37°C and treated with 50 mM N-acetyl-glucosamine (NAG) to eliminate residual invasion of asexual parasites.
(§2) Gametocytocidal activity was determined using the luciferase reporter line (Reader et al., [2015]) to derive dose responses with two-fold serial drug dilutions for 48 h against early stage gametocytes (day 5 post-induction population, >90% stage I–III) and 10-fold serial drug dilutions for 72 h against late stage gametocytes (day 10 post-induction population, >90% late stage IV–V) (2% gametocytemia, 2% hematocrit), at 37°C under 90% N2, 5% CO2, and 5% O2 atmospheric conditions.

[12] = tested on: P. falciparum W2; assay: Proliferative (SYBR Green I) assay, asexual parasites, 96 h; format: cell-based; conditions: Plasmodium falciparum, ±SEM
Description: as §1
(§3) Working solutions of the derivatives were prepared from a 10 mM stock solution in 100% DMSO in supplemented RPMI 1640 media containing Albumax II with a final DMSO concentration of <0.1%, previously determined as being non-toxic to intraerythrocytic asexual parasites and gametocytes. Dose responses were assayed using a two-fold serial drug dilution on in vitro >95% ring stage intraerythrocytic P. falciparum parasites at 37°C under 90% N2, 5% CO2, and 5% O2 atmospheric conditions, detecting both parasite lactate dehydrogenase (pLDH) activity as a metabolic marker following a 48 h drug exposure (1.5–2% parasitemia and 2% hematocrit; Makler et al., [1993]) and SYBR Green I fluorescence as proliferative marker following a 96 h drug exposure (1% parasitemia and 1% hematocrit). […] Data analysis was performed using GraphPad Prism 7.

[13] = tested on: P. falciparum K1; assay: as above; format: cell-based; conditions: Plasmodium falciparum, ±SEM
Description: as §1, §3

[14] = tested on: P. falciparum NF54; assay: as above; format: cell-based; conditions: Plasmodium falciparum, ±SEM
Description: as §1, §3

[15] = Cytotoxicity, MTT assay; format: cell-based; conditions: Chinese hamster, CHO cells
Description: (§4) Cytotoxicity (EC50) was determined against Chinese hamster ovarian (CHO) using a 3-(4,5-dimethylthiazol-2-yl)-2,5-diphenyltetrazolium bromide (MTT) assay and hepatocellular carcinoma cells (HepG2) using the Cytoselect LDH cytotoxicity assay kit (Cell Biolabs).

[16] = tested on: P. falciparum NF54; assay: Metabolic (parasite LDH) assay, asexual ring stage parasites, 48 h; format: cell-based; conditions: Plasmodium falciparum, pLDH, CQ-sensitive NF54
Description: as §1, §3

[17] = Cytotoxicity, Cytoselect LDH cytotoxicity assay kit; format: cell-based; conditions: human, HepG2 cells
Description: as §4

[18] = tested on: P. falciparum NF54 late stage gametocytes (>90% stage IV and V); assay: Gametocytocidal luciferase reporter assay, late stage, 72 h; format: cell-based, Plasmodium falciparum; conditions: Plasmodium falciparum, NF54, 72 h, read-out: Late Stage (LG, Luc 72 h) IC50, >90% stage IV and V gametocytes, ±SEM
Description: as §1, §2

[19] = tested on: P. falciparum Dd2; assay: Metabolic (parasite LDH) assay, asexual ring stage parasites, 48 h; format: cell-based; conditions: Plasmodium falciparum, pLDH, Dd2 CQ, pyrimethamine resistant
Description: as §3

[20] = read-out: Cytotoxicity EC50 CHO, MTT assay, ref Coertzen et al. (2018)

| SMILES | EC50 [1, 20] | IC50 [2] | IC50 [3] | IC90 [3] | IC50 [4] | IC50 [5] | IC50 [6] | IC50 [7] | IC50 [8] | IC50 [9] | IC50 [10] | also measured |
| --- | --- | --- | --- | --- | --- | --- | --- | --- | --- | --- | --- | --- |
| CC1CCC2C(C)C(N3CCN(C(=O)Nc4ccccc4)CC3)OC3OC4(C)CCC1C32OO4 (stereo not drawn) [Phenylurea 10] | 2400 ± 1000 nM | 1.7 ± 0.5 nM | 0.12 ± 0.03 nM | 0.2 ± 0.03 nM | 4.7 ± 1.5 nM | 7.5 ± 0.4 nM | 2.9 ± 0.6 nM | 83 ± 2 nM | 1.3 ± 0.8 nM | – | – | – |
| CC1CCC2C(C)C(Nc3ccc(F)cc3)OC3OC4(C)CCC1C32OO4 (stereo not drawn) [Arylamine 12] | 2900 ± 1400 nM | 3 ± 1 nM | 4.76 ± 0.38 nM | 8.51 ± 0.34 nM | 1.3 ± 0.6 nM | 11.1 ± 1 nM | 0.64 ± 0.1 nM | 38.2 ± 9 nM | 7.8 ± 1.9 nM | 16.4 ± 6.38 nM | – | – |
| CCCCCCCCCCCCCCCC(=O)N1CCN([C@@H]2O[C@@H]3O[C@@]4(C)CC[C@H]5[C@H](C)CC[C@@H]([C@H]2C)[C@@]35OO4)CC1 [Compound 26] | – | – | – | – | – | – | – | – | – | – | 50 to 100 nM | – |
| CN(C)c1ccc2nc3ccc(=[N+](C)C)cc-3sc2c1 [MB, methylene blue] | – | 5.13 ± 0.31 nM | – | – | 5 ± 0.8 nM | 12.6 ± 4 nM | 6.45 ± 0.3 nM | 95 ± 11.3 nM | 0.3 ± 0.8 nM | 143 ± 16.7 nM | – | EC50 [1]: 52600 ± 4500 nM |
| C[C@H]1[C@H](N2CCN(S(=O)(=O)c3ccc(C(F)(F)F)cc3)CC2)O[C@@H]2O[C@@]3(C)CC[C@H]4[C@H](C)CC[C@@H]1[C@@]24OO3 [Compound 18] | – | – | – | – | – | – | – | – | – | – | 15 to 74 nM | IC50 [11]: 89.7 ± 28.8 nM; IC50 [12]: 23.8 ± 1.4 nM; IC50 [13]: 22 ± 2.7 nM; IC50 [14]: 13.9 ± 1.2 nM; EC50 [15]: 154000 nM; IC50 [16]: 15.3 ± 2 nM; EC50 [17]: 217 nM; IC50 [18]: 4.8 ± 4.2 nM; IC50 [19]: 74.3 ± 6.42 nM |
| CCCCCCNC(=O)N1CCN([C@@H]2O[C@@H]3O[C@@]4(C)CC[C@H]5[C@H](C)CC[C@@H]([C@H]2C)[C@@]35OO4)CC1 [Compound 20] | – | – | – | – | – | – | – | – | – | – | 50 to 100 nM | – |
